According to US12259388B2, “Cofilin phosphorylation for quantifying CD4 T cell damage and predict CD4 T cell recovery from anti-retroviral therapy” (VIRONGY L.L.C., priority 2018, dated 2025):

Assays:
[1] = system: cofilin phosphorylation in A3R5.7 CD4 T cells; assay: Western blot for p-cofilin and cofilin after R10015 treatment; format: cell-based, human
Procedure: (§1) FIG. 3. Quantification of effects of cofilin hyperactivation on T cell migration. (A) A3R5.7 T cells were treated with different dosages of R10015 for one hour. Phospho-cofilin and total cofilin were quantified by Western blot. (B) The relative ratio of p-cofilin/cofilin in response to R10015 treatment was plotted (n=4 independent experiments). (C) R10015 inhibits cofilin phosphorylation and T cell chemotaxis in response to CXCL12. A3R5.7 cells were treated with different dosages of R10015 for one hour, and then added to the upper chamber of a 24-well transwell plate. The lower chamber was filled with CXCL12 (40 ng/ml), and cell migration to the lower chamber was quantified (n=3 independent experiments). (D) The linear correlation between T cell migration and levels of cofilin phosphorylation. The X-axis is the relative ratio of p-cofilin/cofilin derived from (B); the Y-axis is the number of migrating cells derived from (C).
(§2) T cell migration is controlled by cycles of cofilin phosphorylation and dephosphorylation, which are regulated by the LIM-domain kinase (LIMK) through serine 3 phosphorylation (27, 54). To quantify the direct effect of cofilin hyperactivation on T cell migration, we used a recently discovered LIMK inhibitor, R10015 (55), to block cofilin phosphorylation in A3R5.7 CD4 T cells. We then performed CXCL12-induced T cell chemotaxis in the presence of cofilin hyperactivation. […]

A3R5.7 CD4 T cells = assay: CXCL12-induced T cell chemotaxis (transwell) assay; format: cell-based, human; details: CXCL12 40 ng/ml
Procedure: as §1, with “(D) The linear correlation between T cell migration and levels of cofilin phosphorylation. The X-axis is the relative ratio of p-cofilin/cofilin derived from (B); the Y-axis is the number of migrating cells derived from (C).” left out
as §2, with “cells.” for “cells. We then performed CXCL12-induced T cell chemotaxis in the presence of cofilin hyperactivation.”
A half million cells were resuspended into 100 μl RPMI-1640 medium and then added to the upper chamber of a 24-well transwell plate (Corning, Corning, NY). […] The plate was incubated at 37° C. for 2 hours, and then the upper chamber was removed and cells in the lower chamber were counted. […]

HIV-1 = details: cited from earlier work
[2] = system: cofilin, LIMK in resting CD4 T cells; details: cited from earlier work; for effect on cofilin activation / phosphorylation: resting CD4 T cells

Row | Compound | inhibition of cofilin phosphorylation ([1]; A3R5.7 CD4 T cells, different dosages of R10015 for one hour, ratio p-cofilin/cofilin) | cofilin phosphorylation reduced to ([1]; at around 15 M of R10015, A3R5.7 cells, one hour) | decrease in cell migration (A3R5.7 CD4 T cells; A3R5.7 CD4 T cells, at 50% reduction in cofilin phosphorylation) | T cell chemotaxis in response to CXCL12 (A3R5.7 CD4 T cells; A3R5.7 cells treated one hour) | effect on HIV latent infection of resting CD4 T cells (HIV-1) | effect on cofilin activation / phosphorylation [2] | effect on LIMK ([2]; transient treatment of resting CD4 T cells)
1 | COC(=O)c1ccc2nc(C3CCN(c4ncnc5[nH]cc(Cl)c45)CC3)[nH]c2c1 [R10015] | dosage-dependent inhibition of cofilin phosphorylation | around 50% | 20-40% | inhibits | – | – | –
2 | pertussis toxin | – | – | – | – | inhibits | inhibits cofilin activation | –
3 | C=C1[C@@H](O)[C@@H]2O[C@]3(CC[C@H](/C=C/[C@@H](C)[C@@H]4CC(C)=C[C@@]5(O[C@H](C[C@@](C)(O)C(=O)O)CC[C@H]5O)O4)O3)CC[C@H]2O[C@@H]1[C@@H](O)C[C@H](C)[C@H]1O[C@@]2(CCCCO2)CC[C@H]1C [okadaic acid] | – | – | – | – | promotes HIV latent infection | increase cofilin phosphorylation | activates LIMK
4 | CN[C@@H]1C[C@H]2O[C@@](C)([C@@H]1OC)n1c3ccccc3c3c4c(c5c6ccccc6n2c5c31)C(=O)NC4 [staurosporine] | – | – | – | – | enhances HIV latent infection | induce gradual cofilin activation | –
